Patent US5004593A (Mayo Foundation for Medical Education and Research, priority 1989, dated 1991)
Entries after “also recorded” stand apart in the source; their conditions may differ. Where a name gives a salt, the structure may show the parent alone.

Tests used:
[1] = Phase I plasma and urine pharmacokinetics of intravenous HMM in Intralipid 10% (GC assay); assay type: in vivo, human (cancer patients)
Experimental: (§1) Eighteen patients were treated on the one day every four weeks schedule and 28 patients were treated on the daily ×5 four weeks schedule. Tumors included lung, colorectal, gastric, breast, ovarian, renal, bladder, parotide, hepatic, small bowel, thyroid, fibrosarcoma and fibroblastic osteosarcoma. Forty-five of 47 patients had received prior chemotherapy and/or radiotherapy. All patients had histologic or cytologic confirmation of unresectable cancer for which there was no conventional means of therapy that offered reasonable hope of cure or of significant palliation. All patients were ambulatory and in a reasonable state of nutrition. Patients were required to have WBC count ≥4,000/mm^2, platelet count ≥130,000 m^2, hemoglobin ≥10 g/dl, serum creatinine ≤1.5 mg/dl, ECOG performance status <3, fasting serum triglycerides ≤500 mg/dl. Patients were excluded if they presented with uncontrolled infections, persistent (daily) nausea and/or vomiting, significant chronic obstructive pulmonary disease, any neurologic impairment, major surgery within the proceeding 30 days, radiation to >15% of the bone marrow within 30 days or radiation to total area >30% of bone marrow at any time.
(§2) Tests done prior to entry into study included a history, physical examination and tumor measurement whenever possible, WBC count, hemoglobin, platelet count, chest x-ray, electrocardiogram, electroencephalogram, urine analysis, triglycerides, SGOT, and serum creatinine. Between courses of treatment, the hematology group was checked twice weekly and the hemoglobin, SGOT and serum creatinine once weekly. Triglycerides were determined before and after each HMM treatment. Patients were entered in groups of three at each dose level. New patients were entered at a higher dose level only after the three patients treated at the previous level had been observed for a minimum of three weeks, counting from the last day of treatment. Patients not having significant toxicity at a given dose level were retreated at the next higher dose level but a minimum of three patients who never received HMM were entered at each escalation on each schedule. Dose levels on the daily ×5 schedule were […]. Dose increments for the one-day schedule were 360, 540, 675, 750, 844, and 1,000 mg/m^2.
(§3) Unit dose amounts of drug, Intralipid 10%®, and diluents were changed as dose levels of HMM increased throughout the study. At doses which will be relevant for Phase II evaluation of the parenteral formulation, the following drug preparation scheme was employed. The Mayo Comprehensive Cancer Center Pharmacy weighed 500 mg portions of bulk HMM into sterile vials. HMM was dissolved in 0.1 N hydrochloric acid (sterile HCl for parenteral administration, USP) by adding 27.50 ml of the 0.1 N HCl to each 500 mg vial. The concentration of this solution was 18.2 mg HMM.HCl/ml. The volume of the HMM.HCl solution to be drawn up for each patient was determined by dividing the patient dose level by 18.2 (e.g., for a 750 mg dose, 750 mg divided by 18.2 mg/ml =41.2 ml of the HMM.HCl solution withdrawn from the vial). A 0.22 micron filter assembly was fitted to the syringe containing the appropriate HMM.HCl solution. The volume was filtered into a 500 ml empty sterile and sealed vial. Thus, the correct patient dose was placed in the evacuated vial. An equal volume of air was withdrawn from the sealed vial to maintain vacuum.
(§4) The amount of Intralipid 10%® to be added was determined by dividing the dose by 5.1 (e.g. 750 divided by 5.1=147 ml). The appropriate volume of Intralipid 10%® was added to the 500 ml vial containing the HMM.HCl solution. […]

[2] = Phase I clinical trial, toxicity of intravenous HMM; assay type: in vivo, human (cancer patients)
Experimental: as §1, §2, §3, §4

refractory tumors = experiment: Phase I clinical trial, tumor response to intravenous HMM; assay type: in vivo, human (cancer patients); settings: i.v.
Experimental: as §1, with “Patients were excluded if they presented with uncontrolled infections, persistent (daily) nausea and/or vomiting, significant chronic obstructive pulmonary disease, any neurologic impairment, major surgery within the proceeding 30 days, radiation to >15% of the bone marrow within 30 days or radiation to total area >30% of bone marrow at any time.” left out
Tests done prior to entry into study included a history, physical examination and tumor measurement whenever possible, WBC count, hemoglobin, platelet count, chest x-ray, electrocardiogram, electroencephalogram, urine analysis, triglycerides, SGOT, and serum creatinine. […] Triglycerides were determined before and after each HMM treatment. […]

[3] = HMM concentration in formulation before and after filtration (% theoretical) and precipitation; assay type: physicochemical; settings: for % Theoretical HMM Concentration, After Filter: 0.45μ filter
Experimental: as §3
The amount of Intralipid 10%® to be added was determined by dividing the dose by 5.1 (e.g. 750 divided by 5.1=147 ml). The appropriate volume of Intralipid 10%® was added to the 500 ml vial containing the HMM.HCl solution. Finally, the volume of sodium bicarbonate (sodium bicarbonate for parenteral injection, USP, 1 mEq/ml) was determined by the formula of 0.1 ml sodium bicarbonate for every 20 mg of HMM to be administered (e.g., 750 mg divided by 20=37.5×0.1 ml =3.75 ml sodium bicarbonate). This provided approximately a 4 mg/ml solution of HMM-Intralipid 10%®. A vented tubing set was added to the bottle with the patient's dose. A particulate filter (4.5 micron) was attached to an 18 gauge needle and the filter and needle were placed on the tubing to fill the 500 ml empty bag. The drug was administered at a rate of 2 ml/min or 8 mg/min. Thus, infusion time was lengthened as dose levels increased maintaining a constant rate of drug administration. Fifty (50) ml of normal saline was infused following completion of the HMM infusion.
Details of drug preparation are described in the Methods section while a summary of the formulation procedure is shown in Table 1, below.
This modification of the initial formulation reported in Cancer Treat. Rep., 66, 1579 (1982) to first dissolve the HMM in aqueous HCl, eliminated the use of a toxic organic solvent (ethanol or dimethylacetamide) while ensuring complete and uniform mixing of drug with Intralipid 10%®. Assessment of the formulated product was determined at each step of the procedure by measuring HMM concentrations before and after filtration through 0.45 micron filters (Intralipid 10%® average particle size is approximately 0.40 micron). […] HMM concentrations following filtration of such mixtures yielded <5% of the theoretical HMM concentration.

[4] = system: ovarian adenocarcinoma, metastatic small cell carcinoma of the lung, metastatic breast cancer and refractory lymphoma; settings: single agent clinical trials; cited from earlier work
[5] = clinical; cited from earlier work
[6] = cited from earlier work
[7] = oral administration, man; cited from earlier work
[8] = oral administration, rabbits; due to extensive first-pass metabolism rather than poor absorption; cited from earlier work
[9] = i.v., dogs, one specific HMM hydrochloride preparation; cited from earlier work
[10] = man; cited from earlier work
[11] = 540 mg/m^2 i.v., three-compartment open model
[12] = i.v., one-day or daily ×5 schedules
[13] = after NaHCO3 (1 mEq/ml) 0.1 ml:5 ml, ca. 4 mg/ml
[14] = dissolved in 0.1 N HCl, ca. 20 mg/ml

CN(C)c1nc(N(C)C)nc(N(C)C)n1 [HMM, 2,4,6-tris(dimethylamino)-1,3,5-triazine]
steady state volume of distribution [1, 11]: 460 1/m^2
steady state volume of distribution (Vdss) [1, 11]: 460 l/m^2
terminal half-life [1, 11]: 10.4 h
total body clearance (ClTB) [1, 11]: 0.75 1/min/m^2
accumulation during five-day treatment ([1]; 945 mg/m^2, daily ×5): disproportionate accumulation
observed vs predicted (simulated) 24 hour trough plasma concentrations ([1]; 945 mg/m^2, daily ×5): significantly greater than predicted
accumulation during five-day treatment ([1]; 945 mg/m^2, daily ×5, listed as hexamethylmelamine): possible saturation of parent drug elimination
observed vs predicted (simulated) 24 hour trough plasma concentrations ([1]; 506 and 632 mg/m^2, daily ×5): in agreement with predicted values
Twenty-four hour urinary recoveries of parent drug ([1]; 24 h, all patients): less than one
HMM 24 hours following each dose ([1]; daily ×5 schedule, plasma): detected
change of 24 hour drug concentration over days ([1]; daily ×5 schedule, plasma): increased each day
Cmax ([1]; human, iv, 540 mg/m^2 one-day schedule, five patients, plasma, read-out: Peak concentrations of HMM at the end of infusion): 2550 to 9350 ng/mL
half-life ([1]; human, plasma, iv, 540 mg/m^2 i.v., three-compartment open model, read-out: terminal half-life (converted)): 10.4 h
dose excreted at 24 h ([1]; human, urine, iv, 24 h, read-out: 24 hour urinary recovery of parent drug): < 1%
plasma levels / plasma AUC compared with oral administration ([1]; i.v. vs oral): Substantially higher plasma AUC values
consistency of plasma concentrations compared with oral ([1]; i.v. vs oral (D'Incalci)): more consistent plasma concentrations
demethylated urinary metabolites ([1]; urine): Demethylated urinary metabolites including penta-, tetra-, tri-, and di-methylmelamines were detected in urine
white blood cell counts ([2]; all patients): ≥ 3,000 /μl
maximally tolerated dose ([2]; daily ×5 schedule, i.v.): ~630 mg/m^2 /day
maximum-tolerated doses ([2]; five days in a row every four weeks): 500-600 mg/m^2 /day
myelosuppression ([2]; i.v.): minimal myelosuppression
peripheral neuropathy compared with oral administration ([2]; i.v. aqueous fat emulsion vs same amount orally): reduced from the level observed when the same amount of HMM is administered orally
CNS toxicity, peripheral neuropathy [2, 12]: no CNS toxicity, specifically peripheral neuropathy, was noted in any patients
dose-limiting toxicity [2, 12]: nausea and vomiting
platelet nadir below 100,000/μl (one patient) ([2]; one-day administration of 540 mg/m^2): 75,000 /μl
hematologic toxicities ([2]; one-day or five-day regimen): no significant hematologic toxicities
maximally tolerated dose ([2]; one-day schedule, i.v.): approximately 850 mg/m^2
tumor responses (refractory tumors): No objective responses; also recorded: no tumor responses were observed
% Theoretical HMM Concentration, After Filter ([3]; after Intralipid 10% added 4 ml:1 ml, ca. 4 mg/ml): 100%
% Theoretical HMM Concentration, Before Filter [3, 13]: 100%
% Theoretical HMM Concentration, After Filter [3, 13]: 100%
% Theoretical HMM Concentration, Before Filter [3, 14]: 100%
% Theoretical HMM Concentration, After Filter [3, 14]: 100%
HMM concentration in the final filtered product, % of theoretical ([3]; final product, 0.45 micron filter): 90-95%
active against cancers [4]: active against a number of cancers including ovarian adenocarcinoma, metastatic small cell carcinoma of the lung, metastatic breast cancer and refractory lymphoma
delayed toxicity [5]: moderate anemia, thrombocytopenia, leukopenia, and a peripheral neuropathy
main acute adverse effects [5]: Nausea and vomiting
peripheral neuropathy, symptoms [5]: parethesias, hypesthesias, motor weakness, and other sensory alterations
solubility in water and nontoxic solvents [6]: very limited solubility in water and nontoxic solvents
plasma concentrations of parent drug [7]: Low and variable plasma concentrations of parent drug
bioavailability [8]: poor bioavailability

CN(C)c1nc(N(C)C)nc(N(C)C)n1 [HMM hydrochloride]
tolerability, intravenous [9]: well-tolerated
local irritation and phlebitis [10]: severe local irritation and phlebitis
